According to patent US9216978B2, “Ring-fused pyrimidines and triazines and use thereof for the treatment and/or prophylaxis of cardiovascular diseases” (BAYER INTELLECTUAL PROPERTY GMBH, priority 2010, dated 2015):

Legend:
[1] = target: T1, recombinant guanylate cyclase reporter cell line (Rattus norvegicus, UniProt P19686+P20595); assay: Action on recombinant guanylate cyclase reporter cell line; format: cell-based
T1 construct: expressed in transfected cells
T1 sequence (P20595 1-619): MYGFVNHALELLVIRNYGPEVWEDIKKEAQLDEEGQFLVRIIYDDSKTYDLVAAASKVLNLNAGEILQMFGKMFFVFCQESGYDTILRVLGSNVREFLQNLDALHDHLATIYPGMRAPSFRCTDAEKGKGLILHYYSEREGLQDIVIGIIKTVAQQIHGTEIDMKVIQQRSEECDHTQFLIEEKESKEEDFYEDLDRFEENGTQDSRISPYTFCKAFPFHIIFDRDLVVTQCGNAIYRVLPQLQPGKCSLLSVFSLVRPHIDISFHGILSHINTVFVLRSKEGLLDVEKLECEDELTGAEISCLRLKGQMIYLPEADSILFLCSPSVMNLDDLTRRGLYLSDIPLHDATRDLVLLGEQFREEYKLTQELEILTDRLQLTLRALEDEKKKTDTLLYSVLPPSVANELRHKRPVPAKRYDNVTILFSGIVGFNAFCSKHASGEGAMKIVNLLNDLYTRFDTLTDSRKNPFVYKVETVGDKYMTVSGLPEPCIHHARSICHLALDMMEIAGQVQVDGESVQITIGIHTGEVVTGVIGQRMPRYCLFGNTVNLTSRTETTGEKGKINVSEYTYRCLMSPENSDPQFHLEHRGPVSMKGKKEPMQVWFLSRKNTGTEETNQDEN
T1 sequence (P19686 1-690): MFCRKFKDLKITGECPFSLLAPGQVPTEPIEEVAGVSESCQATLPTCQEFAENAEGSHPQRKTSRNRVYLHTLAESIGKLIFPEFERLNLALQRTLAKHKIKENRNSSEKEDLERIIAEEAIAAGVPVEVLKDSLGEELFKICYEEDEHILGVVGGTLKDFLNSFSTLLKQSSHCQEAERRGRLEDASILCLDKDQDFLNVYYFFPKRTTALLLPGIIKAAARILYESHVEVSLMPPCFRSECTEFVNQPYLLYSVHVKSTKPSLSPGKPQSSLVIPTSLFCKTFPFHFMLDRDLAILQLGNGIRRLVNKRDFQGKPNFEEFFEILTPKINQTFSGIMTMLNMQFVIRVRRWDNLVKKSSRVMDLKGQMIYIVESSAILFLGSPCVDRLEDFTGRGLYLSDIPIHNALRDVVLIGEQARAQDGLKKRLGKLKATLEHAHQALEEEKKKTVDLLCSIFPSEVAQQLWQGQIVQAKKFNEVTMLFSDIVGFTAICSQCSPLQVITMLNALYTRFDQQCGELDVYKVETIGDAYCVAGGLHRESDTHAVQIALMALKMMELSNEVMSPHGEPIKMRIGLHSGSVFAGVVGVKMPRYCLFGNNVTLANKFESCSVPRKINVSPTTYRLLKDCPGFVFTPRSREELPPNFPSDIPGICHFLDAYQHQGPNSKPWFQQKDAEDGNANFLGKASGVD
Protocol: B-2. Action on Recombinant Guanylate Cyclase Reporter Cell Line
The cellular action of the compounds according to the invention is determined on a recombinant guanylate cyclase reporter cell line, as described in F. Wunder et al., Anal. Biochem. 339, 104-112 (2005).

aorta = assay: Vessel-relaxing action in vitro (phenylephrine-contracted aorta rings); settings: Oryctolagus cuniculus; rabbit aorta rings, phenylephrine contraction; concentration reducing control contraction by 50%
Protocol: B-1. Vessel-Relaxing Action In Vitro
Rabbits are stunned with a blow on the back of the neck and exsanguinated. The aorta is removed, freed from adhering tissue, separated into rings with a width of 1.5 mm, and placed individually, with preloading, in 5-ml organ baths with carbogen-gassed Krebs-Henseleit solution at 37° C. with the following composition (mM in each case): sodium chloride: 119; potassium chloride: 4.8; calcium chloride dihydrate: 1; magnesium sulphate heptahydrate: 1.4; potassium dihydrogen phosphate: 1.2; sodium hydrogen carbonate: 25; glucose: 10. The contraction force is recorded with Statham UC2 cells, amplified and digitized via an A/D converter (DAS-1802 HC, Keithley Instruments Munich) and recorded in parallel on a continuous-line recorder. To produce contraction, phenylephrine is added to the bath cumulatively in increasing concentration. After several control cycles, the test substance is added in increasing dosage in each subsequent pass and the level of contraction is compared with the level of contraction reached in the immediately preceding pass. This is used for calculating the concentration that is required to reduce the level of the control value by 50% (IC50 value). The standard application volume is 5 μl, and the proportion of DMSO in the bath solution corresponds to 0.1%.

[2] = Determination of pharmacokinetic parameters after intravenous administration in rats; format: in vivo, rat; settings: intravenous administration of 0.3 mg/kg; for MRT / half-life: male, Wistar, rat, plasma; for MRT: read-out: mean residence time; for half-life: read-out: terminal half-life (converted)
Protocol: B-4. Determination of Pharmacokinetic Parameters after Intravenous and Oral Administration
The pharmacokinetic parameters of the compounds of the formula (I) according to the invention are determined in male CD-1 mice, male Wistar rats and/or female beagles. The administration volume is 5 ml/kg for mice, 5 ml/kg for rats and 0.5 ml/kg for dogs. Intravenous administration is via a formulation of species-specific plasma/DMSO (99/1) in the case of mice and rats and via water/PEG400/ethanol (50/40/10 or 30/60/10) in the case of dogs. For easier removal of blood, a silicone catheter is inserted into the right Vena jugularis externa of the rats before the administration of substance. The surgical intervention takes place one day prior to the experiment with isofluran anaesthesia and administration of an analgetic (atropine/rimadyl (3/1) 0.1 ml s.c.). Substance administration is as i.v. bolus in the case of mice and rats and via a 15-minute infusion in the case of dogs. Removal of blood is after 0.033, 0.083, 0.17, 0.5, 1, 2, 3, 4, 6, 7 and 24 hours in the case of rats, after 0.033, 0.083, 0.17, 0.5, 1, 2, 3, 4, 6, 7, 24, 48 and 72 hours in the case of mice and after 0.083, 0.25, 0.28 0.33, 0.42, 0.75, 1, 2, 3, 4, 6, 7 and 24 hours in the case of dogs. For all species, oral administration of the dissolved substance via gavage is carried out based on a water/PEG400/ethanol formulation (50/40/10). Here, the removal of blood from rats is after 0.083, 0.17, 0.5, 0.75, 1, 2, 3, 4, 6, 7 and 24 hours and from dogs after 0.083, 0.17, 0.5, 0.75, 1, 2, 3, 4, 6, 7, 24, 30 and 48 hours. The blood is removed into heparinized tubes. The blood plasma is then obtained by centrifugation; if required, it can be stored at −20° C. until further processing.
An internal standard (ZK 228859) is added to the samples of the compounds of the formula (I) according to the invention, calibration samples and QCs, and the protein is precipitated using excess acetonitrile. After addition of an ammonium acetate buffer (0.01 M, pH 6.8) and subsequent vortexing, the mixture is centrifuged at 1000 g and the supernatant is examined by LC-MS/MS (API 4000, AB Sciex). Chromatographic separation is carried out on an Agilent 1100-HPLC. The injection volume is 10 μl. The separation column used is a Phenomenex Luna 5μ C8(2) 100 A 50×2 mm, adjusted to a temperature of 40° C. A binary mobile phase gradient at 500 μl/min is used (A: 0.01 M ammonium acetate buffer pH 6.8, B: 0.1% formic acid in acetonitrile): 0 min (90% A), 1 min (90% A), 3 min (15% A), 4 min (15% A), 4.50 min (90% A), 6 min (90% A). The temperature of the Turbo V ion source is 500° C. The following MS instrument parameters are used: curtain gas 15 units, ion spray voltage 4.8 kV, gas 1 45 units, gas 2 35 units, CAD gas 40 units. The substances are quantified by peak heights or areas using extracted ion chromatograms of specific MRM experiments.
The pharmacokinetic parameters such as AUC, Cmax, t1/2 (terminal half-life), MRT (mean residence time) and CL (clearance) are calculated by means of the validated pharmacokinetics calculation program KinEx (Vers. 2.5 and 3) from the plasma concentration-time curves obtained.
As substance quantification takes place in plasma, the blood/plasma distribution of the substance must be determined for appropriate adjustment of the pharmacokinetic parameters. For this, a defined amount of the substance in heparinized whole blood of the corresponding species is incubated for 20 min in the tumbling roller mixer. After centrifugation at 1000 g, the plasma concentration is measured (see above) and the Cblood/Cplasma value is determined by finding the quotient.
Following intravenous administration of 0.3 mg/kg of Example 1, 18, 19 and 27 in rats, the following values were recorded: […]

SMILES | MEC (minimal effective concentration) [1] [µM] | IC50 (aorta) [nM] | CLblood [2] [mL/min/kg] | MRT [2] [h] | half-life [2] [h]
CC1(C)C(=O)Nc2nc(-c3nn(Cc4ccccc4F)c4ncccc34)ncc21 [Example 1, 2-[1-(2-Fluorobenzyl)-1H-pyrazolo[3,4-b]pyridin-3-yl]-5,5-dimethyl-5,7-dihydro-6H-pyrrolo[2,3-d]pyrimidin-6-one] | 0.01 | 12 | 18.3 | 1.2 | 0.9
O=C1Nc2nc(-c3nn(Cc4ccccc4F)c4ncccc34)ncc2C1(O)C(F)(F)F (stereo not drawn) [Example 18, 2-[1-(2-Fluorobenzyl)-1H-pyrazolo[3,4-b]pyridin-3-yl]-5-hydroxy-5-(trifluoromethyl)-5,7-dihydro-6H-pyrrolo[2,3-d]pyrimidin-6-one] | 0.03 | 93 | 7.67 | 1.9 | 1.4
CC1(F)C(=O)Nc2nc(-c3nn(Cc4ccccc4F)c4ncccc34)ncc21 (stereo not drawn) [Example 23, 5-Fluoro-2-[1-(2-fluorobenzyl)-1H-pyrazolo[3,4-b]pyridin-3-yl]-5-methyl-5,7-dihydro-6H-pyrrolo[2,3-d]pyrimidin-6-one] | 0.03 | 15 |  |  | 
CC1(C)C(=O)Nc2nc(-c3nn(Cc4ccccc4F)c4ncc(F)cc34)ncc21 [Example 2, 2-[5-Fluoro-1-(2-fluorobenzyl)-1H-pyrazolo[3,4-b]pyridin-3-yl]-5,5-dimethyl-5,7-dihydro-6H-pyrrolo[2,3-d]pyrimidin-6-one] | 0.01 | 12 |  |  | 
CC(C)(C)OC(=O)CC1(O)C(=O)Nc2nc(-c3nn(Cc4ccccc4F)c4ncccc34)ncc21 (stereo not drawn) [Example 24, tert-Butyl {2-[1-(2-fluorobenzyl)-1H-pyrazolo[3,4-b]pyridin-3-yl]-5-hydroxy-6-oxo-6,7-dihydro-5H-pyrrolo[2,3-d]pyrimidin-5-yl}acetate] | 0.3 | 269 |  |  | 
CC1CC(=O)Nc2nc(-c3nn(Cc4ccccc4F)c4ncccc34)ncc21 (stereo not drawn) [Example 14, 2-[1-(2-Fluorobenzyl)-1H-pyrazolo[3,4-b]pyridin-3-yl]-5-methyl-5,8-dihydropyrido[2,3-d]-pyrimidin-7(6H)-one] | 0.1 | 65 |  |  | 
CC1(C)C(=O)Nc2nc(-c3nn(Cc4cccc(F)c4F)c4ncccc34)nnc21 [Example 27, 3-[1-(2,3-Difluorobenzyl)-1H-pyrazolo[3,4-b]pyridin-3-yl]-7,7-dimethyl-5,7-dihydro-6H-pyrrolo[2,3-e][1,2,4]triazin-6-one] | 0.03 | 54 | 5.83 | 7.3 | 5.6
O=C1Nc2nc(-c3nn(Cc4ccc(F)cc4F)c4ncccc34)ncc2C12CC2 [Example 8, 2′-[1-(2,4-Difluorobenzyl)-1H-pyrazolo[3,4-b]pyridin-3-yl]spiro[cyclopropane-1,5′-pyrrolo[2,3-d]pyrimidin]-6′(7′H)-one] | 0.03 | 13 |  |  | 
COC(=O)NC1C(=O)Nc2nc(-c3nn(Cc4ccccc4F)c4ncccc34)ncc21 (stereo not drawn) [Example 26, Methyl {2-[1-(2-fluorobenzyl)-1H-pyrazolo[3,4-b]pyridin-3-yl]-6-oxo-6,7-dihydro-5H-pyrrolo[2,3-d]pyrimidin-5-yl}carbamate] | 0.3 | 840 |  |  | 
